Assay results as given in article PMC7307906, “Macrocyclic Modalities Combining Peptide Epitopes and Natural Product Fragments” (Journal of the American Chemical Society, 2020).
Read-outs that look alike come from different tables or passages of the source. Where a SMILES comes first, the peptide text is derived from it.

Columns and labels:
human MC5R = molecular target: T1, human MC5R (Homo sapiens, UniProt P33032); assay: Melanocortin receptor radioligand binding (SPA, [125I]-NDP-α-MSH displacement), MC5R; conditions: competitive binding, [125I]-NDP-α-MSH; mean (± SEM) of at least three independent experiments; read-out: IC50 hMC5R binding
T1 construct: expressed in transfected cells; host or cells: HEK293-6E suspension cells, transient expression; membranes
T1 sequence (P33032 whole entry): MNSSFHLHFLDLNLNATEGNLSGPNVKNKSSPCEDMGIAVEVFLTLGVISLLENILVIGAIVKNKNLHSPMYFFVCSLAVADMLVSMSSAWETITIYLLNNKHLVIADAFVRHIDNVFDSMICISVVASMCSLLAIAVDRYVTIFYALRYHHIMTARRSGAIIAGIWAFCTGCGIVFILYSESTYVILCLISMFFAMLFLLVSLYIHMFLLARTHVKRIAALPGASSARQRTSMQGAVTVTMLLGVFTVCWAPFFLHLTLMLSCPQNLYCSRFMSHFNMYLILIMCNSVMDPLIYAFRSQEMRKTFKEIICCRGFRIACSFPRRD

human MC4R [1] = molecular target: T2, human MC4R (Homo sapiens, UniProt P32245); assay: cAMP assay (LANCE) in T-Rex-293 cells expressing MC4R; format: cell-based; conditions: cAMP assay; mean (± SEM) of at least three independent experiments; read-out: EC50 hMC4R cAMP
T2 construct: expressed in transfected cells
T2 sequence (P32245 whole entry): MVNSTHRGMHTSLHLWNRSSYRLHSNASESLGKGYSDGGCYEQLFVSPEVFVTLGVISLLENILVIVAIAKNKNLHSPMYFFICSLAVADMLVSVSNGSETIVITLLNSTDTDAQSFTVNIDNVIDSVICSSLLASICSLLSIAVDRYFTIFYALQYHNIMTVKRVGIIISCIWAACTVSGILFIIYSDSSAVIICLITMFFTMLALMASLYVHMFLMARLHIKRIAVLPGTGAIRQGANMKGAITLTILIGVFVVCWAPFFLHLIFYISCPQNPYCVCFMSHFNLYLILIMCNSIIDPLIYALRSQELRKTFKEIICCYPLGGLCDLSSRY

human MC1R [2] = molecular target: T3, human MC1R (Homo sapiens, UniProt Q01726); assay: cAMP assay (LANCE) in T-Rex-293 cells expressing MC1R; format: cell-based
T3 construct: expressed in transfected cells
T3 sequence (Q01726 whole entry): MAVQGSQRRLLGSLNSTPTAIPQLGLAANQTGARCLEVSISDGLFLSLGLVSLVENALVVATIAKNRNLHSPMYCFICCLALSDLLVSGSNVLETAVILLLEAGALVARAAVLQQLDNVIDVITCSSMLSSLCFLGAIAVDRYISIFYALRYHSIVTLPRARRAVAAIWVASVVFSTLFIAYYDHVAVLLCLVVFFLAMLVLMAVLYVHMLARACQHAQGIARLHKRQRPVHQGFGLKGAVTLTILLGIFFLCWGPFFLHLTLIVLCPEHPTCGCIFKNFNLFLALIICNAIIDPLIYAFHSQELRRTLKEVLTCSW

human MC3R [3] = molecular target: T4, human MC3R (Homo sapiens, UniProt P41968); assay: cAMP assay (LANCE) in T-Rex-293 cells expressing MC3R; format: cell-based; conditions: cAMP assay; mean (± SEM) of at least three independent experiments; read-out: EC50 hMC3R cAMP
T4 construct: expressed in transfected cells
T4 sequence (P41968 whole entry): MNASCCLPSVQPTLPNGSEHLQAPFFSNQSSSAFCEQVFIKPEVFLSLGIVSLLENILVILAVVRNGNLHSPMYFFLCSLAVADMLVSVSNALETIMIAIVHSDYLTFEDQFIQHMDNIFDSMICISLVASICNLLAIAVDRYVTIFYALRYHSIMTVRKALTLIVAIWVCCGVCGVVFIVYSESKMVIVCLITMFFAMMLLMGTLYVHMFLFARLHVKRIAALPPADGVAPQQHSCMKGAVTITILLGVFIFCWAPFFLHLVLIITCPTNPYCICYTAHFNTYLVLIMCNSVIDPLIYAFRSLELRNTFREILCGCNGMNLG

human MC4R [4] = molecular target: T2, human MC4R; assay: Melanocortin receptor radioligand binding (SPA, [125I]-NDP-α-MSH displacement), MC4R; conditions: competitive binding, mean (± SEM) of at least three independent experiments, read-out: IC50 hMC4R binding
human MC1R [5] = molecular target: T3, human MC1R; assay: Melanocortin receptor radioligand binding (SPA, [125I]-NDP-α-MSH displacement), MC1R; conditions: competitive binding, mean (± SEM) of at least three independent experiments, read-out: IC50 hMC1R binding
hMC1−5R = assay: Melanocortin receptor radioligand binding, result stated for all receptors together; set-up: species or system human; conditions: human MC receptors, radioligand binding
Source text: Example concentration response curves for selected PepNats in MC1R, MC3R, MC4R, MC5R radioligand binding assays and MC1R, MC3R, MC4R cAMP assays. Responses were normalized to reference agonist NDP -α-MSH and presented as % effect of control, with full competition in binding defined as -100% and full agonism in cAMP assays defined as […]
binding assay. Threshold to define a compound as active was set to -30% in binding assays and 20% in cAMP assays respectively. Data are from at least three independent experiments and error bars represent ± Standard Error of the […]
% s p e c ific b in d in g o f
(1 picture or pasted object on this page, not shown here) […]
expression, MC1R and MC4R transfected cells were treated with 0.1 ng /mL and MC3R transfected cells with 10 ng/mL doxycyclin, for 24 h before assay.
Melanocortin receptor radioligand binding and cAMP assays.
Binding and cAMP assays were performed as described by Durek et al.7 “A 384-well format scintillation proximity assay (SPA) was used to identify compounds that show competitive binding to the human Melanocortin receptor 1,3,4 or 5 ligand binding domain (LBD). […] The inhibition of the scintillation signal by displacement of [ 125I]- NDP-α-MSH by test compounds were detected by a 1450 MicroBeta Trilux scintillation counter […]
Plates were incubated for 16-23 h in the dark at room temperature before reading on a 1450 […]
Measurements of cAMP production were performed using LANCE® cAMP kits (PerkinElmer) in a total assay volume of 12 µl/well. […] The reaction was stopped with detection buffer containing 10 µM Biotin-cAMP and 15 µM LANCE Eu-W8044 labelled streptavidin (PerkinElmer LANCE cAMP kit). cAMP production was detected by homogenous time resolved fluorescence (HTRF) (λex = 340 nm, λem = 665 and 615 nm) using a Pherastar (BMG Labtech).
PepNats, literature compounds and references were tested in ten-point concentration response (½ log serial dilution) with 100, 10 or 1 µM as final start concentrations. Raw data output was analyzed in Screener software (Genedata AG) and pEC50 and pIC50 values calculated using a four-

human MC3R [6] = molecular target: T4, human MC3R; assay: Melanocortin receptor radioligand binding (SPA, [125I]-NDP-α-MSH displacement), MC3R; conditions: competitive binding, mean (± SEM) of at least three independent experiments, read-out: IC50 hMC3R binding
[7] = the molecule shown is the open-chain precursor, amine bond, 37-membered ring, then NaBH3CN, DMF, resin, 25.0 °C
[8] = the molecule shown is the open-chain precursor, other bond, 37-membered ring, CH(OMe)3/Et3N, DMF, THF, resin, 25.0 °C, with chain assembly
Recombinant human SPSB2 = molecular target: T5, Recombinant human SPSB2 (Homo sapiens, UniProt Q99619); assay: Surface plasmon resonance (SPR) binding to immobilized hSPSB2
T5 construct: purchased Abcam ab134592
T5 sequence (Q99619 1-263): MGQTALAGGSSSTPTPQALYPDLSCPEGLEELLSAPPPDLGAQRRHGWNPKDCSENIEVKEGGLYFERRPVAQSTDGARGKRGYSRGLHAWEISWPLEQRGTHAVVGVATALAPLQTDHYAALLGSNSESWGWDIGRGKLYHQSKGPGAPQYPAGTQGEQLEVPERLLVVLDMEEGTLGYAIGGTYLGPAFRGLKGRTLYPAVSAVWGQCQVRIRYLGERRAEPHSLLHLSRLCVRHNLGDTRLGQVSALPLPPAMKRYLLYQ
Procedure: Example sensorgrams for selected PepNats D1−D4, D7, D8, D10, D12 and D18 interacting with immobilized hSPSB2 using SPR (red). Each PepNat was injected at 0.020 µM, 0.078 µM, 0.313 µM, 1.25 µM and 5 µM concentration in quick succession followed by a longer dissociation time. A binding kinetic model was fitted to each experimental trace (black). All experiments were conducted in triplicates. […]
to the elution profile of the crude product . The relevant fractions containing the desired product were collected, analyzed by RP-HPLC-MS and accordingly pooled and lyophilized.
HRMS were obtained on a Thermo Scientific LTQ Fleet Orbitrap mass spectrometer coupled to an Accela HPLC-System (HPLC column: Hypersyl GOLD, 50 mm x 1 mm, particle size 1.9 μm) equipped with an electron spray ionization source (ESI). The mass detection was recorded in the range of […]
2) B) Biochemical Assays Materials and Methods
Surface Plasmon Resonance (SPR)
All SPR experiments were conducted on a Biacore T200, S200 or 8K instrument (GE Healthcare) at 20 °C using HBS-P+ as running buffer (GE Healthcare). A CM5 sensor chip (GE Healthcare) was conditioned three times at 60 s using 50 mM NaOH, 1 M NaCl prior to standard NHS/EDC activation (e.g. amine coupling in the Biacore instruction manual) of the sensor surface for 420 s.
Recombinant human SPSB2 (product ID: ab134592, Abcam, Cambridge, UK) was diluted to 200 nM using 10 mM Sodium acetate pH 5. 5 and injected over the activated surface for 300 s. This surface and a surface subjected to only NHS/EDC activation were deactivated using 100 mM Tris -HCl, pH 8.0. The empty surface was used as a reference surface.
All PepNat and peptide reference interac tion experiments were conducted by diluting 10 mM DMSO stocks of PepNats and peptide references using digital dispensing (Tecan) to 10 µM, 2.5 µM, 625 nM, 156 nM and 40 nM or 1 µM, 250 nM, 63 nM, 16 nM and 4 nM. All concentrations were serially injected ov er both the SPSB2 containing - and empty surfaces using single -cycle kinetics (GE Healthcare). The resulting sensorgrams were reference - and blank subtracted prior to fitting of the data using a binding kinetic model (Biacore evaluation software).
DNA constructs, cell culturing, transfections and generation of stable cell lines DNA constructs and cell lines were employed as previously described by Durek et al.7 “cDNAs encoding human MC1 (Genbank accession number NM_002386), MC3 (NM_019888), and MC4 (NM_005912) and MC5 (NM_005913) were cloned into the pcDNA4/TO vector (ThermoFisher). In the constructs, a consensus Kozak sequence (GCCACC) was incorporated immediately before the start ATG. DNA was amplified, isolated and sequenced using standard techniques.
T-Rex™-293 cells (ThermoFisher) were cultured in DMEM medium, supplemented with 10% foetal bovine serum and 5 µg/ml blasticidin at 37°C in a humidified atmosphere with 10% CO2.
Lipofectamine 2000 (ThermoFisher) was used for transfections according to the manufacturer’s recommendations. Resistant polyclonal populations were generated by selection with Zeocin (0.3 mg/ml, ThermoFisher) for about two weeks after transfection. Individual clones were iso lated using flow cytometry, subsequently expanded, tested for responsiveness to [Nle 4, DPhe7]-α-Melanocyte Stimulating Hormone (NDP-α-MSH) and cryopreserved.” To induce receptor

What does the source list for `C[C@@H]1NC(=O)[C@H](CC(N)=O)NC(=O)[C@H](Cc2ccccc2)NC(=O)[C@H](Cc2ccccc2)NC(=O)[C@H](CCCNC(=N)N)NC(=O)[C@@H](NC(=O)[C@@H](N)Cc2ccc(O)cc2)CSSC[C@@H](C(=O)N[C@@H](Cc2ccc(O)cc2)C(N)=O)NC(=O)[C@H](Cc2ccccc2)NC1=O` [compound 28, reference compound] (HELM PEPTIDE1{Y.C.R.F.F.N.A.F.C.Y.[am]}$PEPTIDE1,PEPTIDE1,2:R3-9:R3$$$V2.0)?
IC50 (human MC5R): 1600 ± 300 nM; EC50 (human MC4R [1]): > 100000 nM; Emax (human MC1R [2]; T-REx-293, read-out: % Effect hMC1R cAMP): 44%; agonistic activity at MC1R (in words) (human MC1R [2]; cAMP assay, hMC1R): weak partial agonistic activity; EC50 (human MC1R [2]; cAMP assay, mean (± SEM) of at least three independent experiments, read-out: EC50 hMC1R cAMP): 1200 ± 400 nM; EC50 (human MC3R [3]): > 100000 nM; IC50 (human MC4R [4]): 180 ± 10 nM; IC50 (human MC1R [5]): 10000 ± 1000 nM; binding to the MC receptors (in words) (hMC1−5R): micromolar affinity; IC50 (human MC3R [6]): 1600 ± 100 nM

Which ring closure, conversion ([7]; 1% AcOH) does the source give for “H-Gly-MePhe-Ala-Leu-Phe-Pro-Gly-Phe-Lys(4-formylbenzoyl)-Gly-resin” here?
The ring closure, conversion was 91%.

And the ring closure, conversion ([7]; 5% AcOH)?
The ring closure, conversion was 99%.

What about the ring closure, conversion ([7]; Et3N/4A MS) of the same compound?
Its ring closure, conversion is 4%.

What about the ring closure, yield after HPLC ([8]; then 10/LiBr/Et3N) of the same compound?
The ring closure, yield after HPLC was 14%.

And the ring closure, yield after HPLC ([8]; then 11/LiBr/Et3N)?
The ring closure, yield after HPLC was 8%.

For `CC[C@H](C)[C@@H]1NC(=O)[C@H](CC(=O)O)NC(=O)[C@H](Cc2ccccc2)N(C)C(=O)[C@H]2N[C@@H](c3ccc(cc3)C(=O)NCCCC[C@@H](C(=O)NCC(N)=O)NC(=O)[C@H](CC(N)=O)NC(=O)[C@H](CC(N)=O)NC(=O)[C@H](CC(N)=O)NC1=O)[C@@H](C(=O)OC)[C@H]2C(=O)OC` [D4-minor, [IV-FDINNNK ]G], which “binding to SPSB2 (in words)” value (Recombinant human SPSB2; SPR, hSPSB2) is on record?
The value was “did not bind”.

And the Kd (Recombinant human SPSB2; SPR, hSPSB2, mean ± SEM of three independent experiments)?
The Kd was over 10000 nM.

Which “fold improved binding affinity compared to disulfide-bridged peptide 24” value (Recombinant human SPSB2; ratio of SPR KD, hSPSB2, versus 24) does the source give for `CC[C@H](C)[C@@H]1NC(=O)[C@H](CC(=O)O)NC(=O)[C@H](Cc2ccccc2)N(C)C(=O)[C@@H]2N[C@H](c3ccc(cc3)C(=O)NCCCC[C@@H](C(=O)NCC(N)=O)NC(=O)[C@H](CC(N)=O)NC(=O)[C@H](CC(N)=O)NC(=O)[C@H](CC(N)=O)NC1=O)C1(C(=O)N(C)C(=O)N(C)C1=O)[C@H]2c1ccccc1` [D7-major, [VII-FDINNNK ]G] here?
Its value is 4 fold.

What about the “fold higher affinity compared to ortho ether aromatic unit analogue 26” value (Recombinant human SPSB2; ratio of SPR KD, hSPSB2, versus 26) of the same compound?
The value was 46 fold.
